Experimental data as given in ChEMBL document CHEMBL5104207, “Synthesis, biological evaluation and computational studies of pyrazole derivatives as Mycobacterium tuberculosis CYP121A1 inhibitors” (RSC Med Chem, 2022).
The source made the active and inactive calls. No cut-off for these calls is given here.

The compounds below were run on Mycobacterium tuberculosis (assay: Binding affinity to BTFA labelled recombinant Mycobacterium tuberculosis CYP121A1 C171S mutant assessed as change in chemical shift perturbation incubated for 15 mins by 19F NMR spectroscopy).

Structure (SMILES) | Activity
CCOc1ccc(-c2nn(-c3ccc(Cl)cc3)cc2Cn2cncn2)cc1 | Active
COc1ccc(-c2nn(-c3ccc(F)cc3)cc2Cn2ccnc2)cc1 | Active
COc1ccc(-c2nn(-c3ccc(Cl)cc3)cc2Cn2cncn2)cc1 | Active
CC(C)Oc1ccc(-c2nn(-c3ccc(F)cc3)cc2Cn2ccnc2)cc1 | Active
